{"source": "paper PMC6856681", "about": "“Accumulation of Dietary S‐Methyl Cysteine Sulfoxide in Human Prostate Tissue” (Molecular Nutrition & Food Research, 2019)", "key": {"[1]": {"test": "SAP study: metabolites in prostate biopsy tissue, peri-prostatic adipose tissue and urine after 4 weeks of broccoli soup supplementation vs control", "assay_type": "in vivo, human", "from_the_text": "The SAP study (Figure 2) was a two-arm, parallel un-blinded, dietary-supplementation study, delivering a short, high-dose broccoli soup supplement to a habitual diet to men in the pre-biopsy window before a trans-perineal prostate biopsy (TPB). The primary aim was to determine whether supplementation of a diet with a broccoli soup would enhance the levels of […] and other broccoli-derived metabolites in the prostate of men scheduled for prostate biopsy. Eighteen men were randomized to either continue their normal diet (non-supplementation controls) or receive three portions of a glucoraphanin-rich broccoli soup (300 g) per week for a minimum of 4 weeks manufactured from a broccoli cultivar heterozygous for a Myb28^villosa allele, as previously described.19 On the study day, samples of whole blood, urine (following a digital rectal prostatic massage), prostate, and peri-prostatic adipose tissue were collected. The protocol was approved by the Human Research Governance Committee ([…] 01/2016) at Quadram Institute Bioscience and given full ethical approval by The East of England - Cambridge East Research Ethics Committee (ref: 16/EE/0054). The trial was registered on a publicly accessible database (ClinicalTrials.gov, NCT02821728). A sample of whole blood for genotyping was obtained via the intravenous cannula inserted for use by the anesthetist, thus avoiding additional venipuncture. After prostatic massage, a first-pass urine sample was collected. TPB was performed under general or spinal anesthesia with appropriate antibiotic prophylaxis. Once anesthetized, the patient was positioned supine with their legs elevated in stirrups. A template grid was placed on the skin of the perineum and the prostate visualized by trans-rectal ultrasound scan. […] For the SAP study, eight biopsy cores of prostate tissue were taken from a region of the prostate not known or suspected to contain cancer. Five of these were snap frozen for metabolite analyses, two in RNAlater, and one in methanol. Two additional cores were taken from peri-prostatic adipose tissue and snap frozen. Snap-frozen tissue cores were individually weighed on a high-sensitivity balance and transferred to screw-top tubes. Two hundred microliters of cold Milli- Q® water and […] of autoclaved, acid-washed 710 to 1180 μm glass beads were added to each tube. […] The samples were then placed on a revolving shaker for 15 min at 4 °C. The tubes were centrifuged at 17 000 × g for 10 min at 4 °C and 50 μL of supernatant transferred to a new Eppendorf. 10 μL of 50% trichloroacetic acid (TCA) were added to each sample to precipitate proteins. The centrifugation step was repeated and 50 μL of supernatant transferred to HPLC insert vials for analysis by LC-MS/MS. […] Stock solutions of 1 mg mL^-1 sulfate (Sigma) and SMCSO (LKT laboratories Inc.) were generated by dilution of weighed powder into Milli-Q water. Serial fivefold dilutions were performed in the relevant matrix to produce 6-point calibration curves from 10 to 0 μg mL^-1 on the day of analysis. Sulfate was quantified using an Agilent 6490 triple-quad LC-MS mass spectrometer (Agilent technologies) with Thermo Scientific Hypercarb, Porous Graphitic Carbon (PGC) (3 × 50 mm, 3 μm) column. Two microliters were injected from each sample, with separation by 1% formic acid in Milli-Q water (mobile phase A) and 1% formic acid in methanol (mobile phase B). The gradient started at 8% mobile phase B, increasing to 70% over 5.5 min and returned to 8% mobile phase B for re-equilibration over the last 9.5 min. The column temperature was maintained at 60 °C and the flow rate at 0.3 mL min^-1. […] SMCSO was quantified with the Agilent system described above. […] Snap-frozen tissue cores were individually weighed on a high-sensitivity balance and transferred to screw-top tubes. Two hundred microliters of cold Milli-Q water and […] of autoclaved, acid-washed 710 to 1180 μm glass beads (Sigma) were added to each tube. […]"}, "[2]": {"test": "Effect of heating the soup to boiling (microwave or conduction) on metabolite amount", "assay_type": "physicochemical", "conditions": "heating to boiling by microwave or conduction vs unheated control", "from_the_text": "One portion of soup contained 280 ± 8.8 µmoles of glucoraphanin and 1513 ± 36.8 µmoles of SMCSO. The soup was provided frozen and heated up prior to consumption using a standard procedure. Heating either by microwave or conduction had no effect on SMCSO or glucoraphanin concentration (Figure 3).\nFigure 3 The effect of heating soup to boiling on amount of a) glucoraphanin and b) SMCSO compared to unheated control by microwave or conduction heating. Columns are means of two independent samples."}, "[3]": {"parameters": "method as in Sivapalan et al.19", "conditions": "human, ref Sivapalan et al.19, cited from earlier work"}, "[4]": {"conditions": "human, cited from earlier work"}, "[5]": {"test": "SMCSO in tissue cores from radical prostatectomies of men not in a dietary study", "assay_type": "in vivo, human", "conditions": "two cores from each of four glands", "from_the_text": "To further explore the presence of un‐metabolized SMCSO in the prostate gland of men who had not been within a dietary study, tissue samples were obtained from patients who had endoscopic extraperitoneal radical prostatectomies. Access to tissue and subsequent analyses were undertaken under ethical approval granted from the Faculty of Medicine and Health Sciences Research Ethics Committee of the University of East Anglia (FMHS 20122014–37). The prostate gland was removed from the abdominal cavity immediately after resection and rapidly biopsied after extraction to avoid ischemic artifacts using a standard core biopsy instrument, as previously described.23 The extracted whole prostatectomy specimen was placed on a surgical table, the apex and base of the gland were identified, and the prostate cut transversely (axial section) half way along the gland. With the use of the midline and the urethra as guides, biopsies were taken from the peripheral zones avoiding obvious tumor sites where feasible. Two cores were taken from each of four glands for analyses. The tissue was snap frozen and analyzed for the presence of SMCSO as described above."}, "[6]": {"test": "Feeding of 35S-labeled SMCSO to human volunteers, recovery of label in urine (Waring et al.)", "assay_type": "in vivo", "from_the_text": "Previously, there has been only a single study of the metabolism of SMCSO in humans. Waring and colleagues describe the feeding of ^35S‐labeled SMCSO to human volunteers, and the recovery of 96% of the label in urine after 14 days, of which 40% was inorganic sulfate, indicating almost complete absorption of SMCSO (and/or its colonic microbiological derivatives).18 How SMCSO was metabolized is unknown, but it is likely that it was due to initial cysteine‐S‐conjugate β lyase activity by gut microbiome, as opposed to mammalian enzyme activity."}, "[7]": {"conditions": "both, human, in vivo", "protocol": "(§1) SMCSO was quantified with the Agilent system described above. Samples were injected at 2 µL eluted at a flow rate of 0.3 mL min^–1 on an Agilent SB‐AQ 1.8 µM (100 × 21 mm) C18 column. Separation was carried out using 10 mM ammonium acetate + 0.05% hetafluorobutyric acid in Milli‐Q water (mobile phase A) and 10 mM ammonium acetate + 0.05% hetafluorobutyric acid in 90% methanol (mobile phase B). The gradient started at 2% mobile phase B, increasing over 2 min to 5% B and returning to 2% mobile phase B for re‐equilibration over the last 2 min. The column was set at 20 °C due to the instability of SMCSO at high temperatures. The LC eluent flow was sprayed into the mass spectrometer interface without splitting. SMCSO ion was monitored by MS in MRM mode (m/z = 87.9) in positive polarity with ESI. The source parameters were: gas temperature 200 °C, gas flow 16 L min^–1, sheath gas temperature 300 °C with a sheath gas flow of 11 L min^–1, a nebulizer pressure of 50 psi, and capillary voltage 3500 V. Quantification was performed by peak area against the matrix‐matched standard curve, and identification by retention time and product ions.\n(§2) To quantify the amount of SMCSO in plasma and urine from a single portion of soup, samples were analyzed from a previously described acute intervention study (NCT02300324).24 In this study, ten volunteers consumed a single portion of the identical soup to that used in the SAP study as described above as part of a three‐phase cross‐over study. Briefly, men and woman aged 18–65 years with a BMI between 19.5 and 35 kg m^–2 were enrolled into a dietary intervention trial undertaken at the Human Nutrition Unit of the Quadram Institute Bioscience Subjects were recruited on the basis of fasted (≥8 h) screening blood/urine samples and a completed health questionnaire. The study involved a 48‐h pre‐intervention diet restriction, a study day involving a 9‐h stay at the HNU and a sample collection the following morning (24 h post soup consumption) followed by a washout period of 2 weeks. […]"}, "[8]": {"parameters": "method as in PMID 14768973", "conditions": "cited from earlier work"}, "clinical": {"test": "clinical", "conditions": "both, human, in vivo", "protocol": "as §1, §2"}, "[9]": {"conditions": "read-out: Plasma C max; following a portion of cruciferous vegetables, transient; cited from earlier work"}, "[10]": {"conditions": "human prostate biopsy cores, LC–MS/MS, both study arms"}}, "note": "Like-named read-outs stand apart in the source and are kept apart here.", "data": [{"smiles": "C[S@@+]([O-])CCCC/C(=N/OS(=O)(=O)O)S[C@@H]1O[C@H](CO)[C@@H](O)[C@H](O)[C@H]1O", "note": "[Glucoraphanin, 4‐Methylsulphinylbutyl glucosinolate]", "values": [{"measurement": "Detection in prostate tissue", "setting": "[1]; [10]", "result": "No glucoraphanin or sulforaphane (and its thiol conjugates) was detected"}, {"measurement": "Effect of heating on concentration in the soup", "setting": "[2]", "result": "no effect"}, {"measurement": "Plasma C24h", "setting": "[3]; 24 h after single 300 mL portion of broccoli soup", "result": "<0.01", "unit": "µmol/L"}, {"measurement": "Plasma AUC", "setting": "[3]; single 300 mL portion of broccoli soup (280 µmoles glucoraphanin)", "result": "0.15 ± 0.08", "unit": "µmol·h/L"}, {"measurement": "Cmax", "setting": "[3]; single 300 mL portion of broccoli soup (280 µmoles glucoraphanin), read-out: Plasma Cmax", "result": "30 ± 10", "unit": "nM"}, {"measurement": "Plasma Tmax", "setting": "[3]; single 300 mL portion of broccoli soup", "result": "2.23 ± 0.09", "unit": "h"}, {"measurement": "Urine: percentage excreted after 24 h", "setting": "[4]; percentage of consumed glucoraphanin excreted intact, ref Sivapalan et al.19", "result": "0.51 ± 0.24", "unit": "%"}, {"measurement": "Urine: total excreted in 24 h", "setting": "[4]; single 300 mL portion of broccoli soup (280 µmoles glucoraphanin), ref Sivapalan et al.19", "result": "1.44 ± 0.66", "unit": "µmol"}, {"measurement": "Conversion of glucoraphanin to sulforaphane", "setting": "[4]; value assumed for the dose-equivalent calculation", "result": 8, "unit": "%"}]}, {"smiles": "C[S@+]([O-])C[C@H](N)C(=O)O", "note": "[SMCSO, (+)‐S‐methyl cysteine sulfoxide]", "values": [{"measurement": "Detection in prostate tissue", "setting": "[1]; in vivo", "result": "present"}, {"measurement": "SMCSO level in peri-prostatic adipose tissue", "setting": "[1]; in vivo", "result": "higher levels than in prostate tissue but without significant difference between the two groups"}, {"measurement": "SMCSO level in urine, supplement group vs control", "setting": "[1]; in vivo", "result": "higher in urine in the supplement group compared to the control"}, {"measurement": "Detection of SMCSO in radical prostatectomy tissue samples", "setting": "[5]", "result": "detected in seven of the eight tissue samples"}, {"measurement": "Proportion of SMCSO absorbed from the GI tract", "setting": "[6]; concluding statement", "result": "~100", "unit": "%"}, {"measurement": "Proportion of consumed SMCSO that is metabolized in vivo", "setting": "[6]; inferred from this study together with Waring et al. 18", "result": "about 90%"}, {"measurement": "Effect of heating on concentration in the soup", "setting": "[2]", "result": "no effect"}, {"measurement": "Plasma concentration of SMCSO relative to that of glucoraphanin or sulforaphane", "setting": "[7]", "result": "about 1000 fold"}, {"measurement": "Share of recovered urinary label that was inorganic sulfate", "setting": "[8]; human volunteers fed 35S-labeled SMCSO, 14 days", "result": 40, "unit": "%"}, {"measurement": "Recovery of 35S label in urine", "setting": "[8]; human volunteers fed 35S-labeled SMCSO, after 14 days", "result": 96, "unit": "%"}, {"measurement": "Proportion of SMCSO absorbed (as un-metabolized SMCSO or unknown derivatives)", "setting": "[8]; human", "result": 97, "unit": "%"}, {"measurement": "concentration at 24 h", "setting": "clinical", "result": "4.66 ± 1.52", "unit": "µM"}, {"measurement": "Tmax", "setting": "clinical; Plasma Tmax", "result": 1.4, "unit": "h"}]}, {"smiles": "C[S+]([O-])CCCCN=C=S", "note": "(centres unmarked) [Sulforaphane, sulforaphane]", "values": [{"measurement": "Detection in prostate tissue", "setting": "[1]; [10]", "result": "No glucoraphanin or sulforaphane (and its thiol conjugates) was detected"}, {"measurement": "Sulforaphane in urine", "setting": "[1]; human, participants in both arms", "result": "detected in urine from participants in both arms of the study"}, {"measurement": "Cmax", "setting": "[9]", "result": "< 1000", "unit": "nM"}]}, {"smiles": "O=S(=O)(O)O", "note": "[sulfate]", "values": [{"measurement": "Sulfate level in prostate tissue between the two dietary arms", "setting": "[1]; human prostate biopsy cores", "result": "no significant difference"}]}]}
